Results as given in PubChem BioAssay (NCI).
Several values for one entry are separate records, joined by “and”; a condition that tells them apart may be missing. Equal values may be shown once.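 Method: 48-hour compound exposure of cells in 96-well plates, five concentrations, linear interpolation of endpoints. The concentration for 50% growth inhibition is given as GI50. TGI is the concentration that stops growth completely.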

Key:
Test in all cases: NCI-60 cell line screen, 48 h
[1] = system: A549 NSCLC
[2] = system: CAKI-1 renal
[3] = system: MDA-N
[4] = system: NCI/ADR-RES ovarian
[5] = system: SK-OV-3 ovarian
[6] = system: K-562 leukemia
[7] = system: ACHN renal
[8] = system: LOX IMVI melanoma
[9] = system: 786-0 renal
[10] = system: SF-295 CNS
[11] = system: NCI-H460 lung
[12] = system: NCI-H226 lung
[13] = system: RXF 393 renal
[14] = system: BT-549 breast
[15] = system: SW-620 colon
[16] = system: MALME-3M melanoma
[17] = system: PC-3 prostate
[18] = system: SNB-75 CNS
[19] = system: UACC-62 melanoma
[20] = system: MCF7 breast
[21] = system: CCRF-CEM leukemia
[22] = system: HL-60(TB) leukemia
[23] = system: KM12 colon
[24] = system: DU-145 prostate
[25] = system: UO-31 renal
[26] = system: OVCAR-5 ovarian
[27] = system: IGROV1 ovarian
[28] = system: NCI-H23 lung
[29] = system: HOP-62 NSCLC
[30] = system: RPMI-8226 leukemia
[31] = system: HCT-15 colon
[32] = system: SF-539 CNS
[33] = system: EKVX NSCLC
[34] = system: NCI-H522 lung
[35] = system: SN12C renal
[36] = system: OVCAR-4 ovarian
[37] = system: HT29 colon
[38] = system: SK-MEL-28 melanoma
[39] = system: MOLT-4 leukemia
[40] = system: HCT-116 colon
[41] = system: SNB-19 CNS
[42] = system: TK-10 renal
[43] = system: UACC-257 melanoma
[44] = system: U251 CNS
[45] = system: MDA-MB-231 breast
[46] = system: SK-MEL-5 melanoma
[47] = system: SK-MEL-2 melanoma
[48] = system: T-47D breast
[49] = system: HS 578T breast
[50] = system: COLO 205 colon
[51] = system: HCC-2998 colon
[52] = system: OVCAR-8 ovarian
[53] = system: M14 melanoma
[54] = system: SR leukemia
[55] = system: SF-268 CNS
[56] = system: MDA-MB-435
[57] = system: HOP-92 NSCLC
[58] = system: A498 renal
[59] = system: OVCAR-3 ovarian

O=C(O)CCCc1ccc2c(c1)C(C(=O)O)CC2 (configuration not stated)
TGI [1]: > 100 µM | TGI [2]: > 100 µM | TGI [3]: > 100 µM | TGI [4]: > 100 µM | TGI [5]: > 100 µM | TGI [6]: > 100 µM | TGI [7]: > 100 µM | TGI [8]: > 100 µM | TGI [9]: > 100 µM | TGI [10]: > 100 µM | TGI [11]: > 100 µM | TGI [12]: > 100 µM | TGI [13]: > 100 µM | TGI [14]: > 100 µM | TGI [15]: > 100 µM | TGI [16]: > 100 µM | TGI [17]: > 100 µM | TGI [18]: > 100 µM | TGI [19]: > 100 µM | TGI [20]: > 100 µM | TGI [21]: > 100 µM | TGI [22]: > 100 µM | TGI [23]: > 100 µM | TGI [24]: > 100 µM | TGI [25]: > 100 µM | TGI [26]: > 100 µM | TGI [27]: > 100 µM | TGI [28]: > 100 µM | TGI [29]: > 100 µM | TGI [30]: > 100 µM | TGI [31]: > 100 µM | TGI [32]: > 100 µM | TGI [33]: > 100 µM | TGI [34]: > 100 µM | TGI [35]: > 100 µM | TGI [36]: > 100 µM | TGI [37]: > 100 µM | TGI [38]: > 100 µM | TGI [39]: > 100 µM | TGI [40]: > 100 µM | TGI [41]: > 100 µM | TGI [42]: > 100 µM | TGI [43]: > 100 µM | TGI [44]: > 100 µM | TGI [45]: > 100 µM | TGI [46]: > 100 µM | TGI [47]: > 100 µM | TGI [48]: > 100 µM | TGI [49]: > 100 µM | TGI [50]: > 100 µM | TGI [51]: > 100 µM | TGI [52]: > 100 µM | TGI [53]: > 100 µM | TGI [54]: > 100 µM | TGI [55]: > 100 µM

COc1cccc(-c2cc(=O)c3cc(N4CCN(C)CC4)ccc3[nH]2)c1
GI50 [1]: 6.99 µM | TGI [1]: > 100 µM | GI50 [2]: 0.722 µM | TGI [2]: > 100 µM | GI50 [3]: 0.349 µM | TGI [3]: 0.923 µM and 4.25 µM | GI50 [4]: 3.68 µM | GI50 [5]: 3.84 µM | TGI [5]: 9.29 µM and 87.2 µM | GI50 [6]: 0.492 µM | TGI [6]: 6.22 µM | GI50 [7]: 3.74 µM | TGI [7]: > 100 µM | GI50 [8]: 2.11 µM | GI50 [9]: 5.28 µM | TGI [9]: > 100 µM | GI50 [56]: 0.16 µM | TGI [56]: 0.554 µM and 0.364 µM | GI50 [10]: 8.34 µM | TGI [11]: > 100 µM | GI50 [12]: 2.83 µM | GI50 [13]: 0.238 µM | TGI [13]: 5.77 µM and 0.976 µM | GI50 [15]: 0.755 µM | TGI [15]: > 100 µM | GI50 [17]: 1.55 µM | TGI [17]: > 100 µM | GI50 [18]: 0.612 µM | TGI [18]: 65.1 µM | GI50 [19]: 1.46 µM | TGI [19]: > 100 µM | GI50 [20]: 3.72 µM | TGI [20]: > 100 µM | GI50 [21]: 0.598 µM | TGI [21]: 5.89 µM | GI50 [22]: 0.41 µM | TGI [22]: 3.04 µM and 1.23 µM | GI50 [23]: 1.35 µM | TGI [23]: 4.81 µM and 45.4 µM | TGI [25]: > 100 µM | GI50 [26]: 6.24 µM | TGI [26]: > 100 µM | GI50 [27]: 2.86 µM | TGI [27]: > 100 µM | GI50 [28]: 3.45 µM | GI50 [29]: 10.7 µM | TGI [29]: > 100 µM | GI50 [57]: 3.1 µM | GI50 [30]: 1.93 µM | TGI [30]: 6.11 µM | GI50 [31]: 2.44 µM | GI50 [32]: 1.5 µM | TGI [32]: 2.36 µM and 7.13 µM | GI50 [33]: 2.96 µM | GI50 [34]: 1.02 µM | TGI [34]: 4.28 µM and 3.79 µM | GI50 [35]: 4.68 µM | TGI [35]: > 100 µM | GI50 [36]: 10.6 µM | TGI [36]: > 100 µM | GI50 [37]: 1.78 µM | TGI [37]: 5.68 µM and 5.83 µM | GI50 [38]: 3.99 µM | TGI [38]: > 100 µM | GI50 [39]: 2.06 µM | TGI [39]: 7.21 µM | GI50 [40]: 0.92 µM | TGI [40]: > 100 µM | TGI [41]: 8.41 µM | GI50 [42]: 13.5 µM | TGI [42]: 94.6 µM | GI50 [45]: 2.24 µM | TGI [45]: 9.89 µM and 7.13 µM | GI50 [46]: 0.766 µM | GI50 [47]: 3.16 µM | TGI [47]: > 100 µM | TGI [49]: 4.88 µM | GI50 [50]: 2.02 µM | TGI [50]: 3.55 µM and 10.7 µM | TGI [58]: 5.32 µM | GI50 [51]: 1.15 µM | TGI [51]: 4.71 µM and 3.88 µM | GI50 [52]: 1.78 µM | TGI [52]: 4.99 µM and 6.39 µM | GI50 [53]: 2.61 µM | TGI [53]: > 100 µM | TGI [54]: 2.49 µM | GI50 [55]: 4.28 µM | TGI [55]: > 100 µM

CC(=O)C1(C(=O)C(=[N+]=[N-])S(=O)(=O)c2ccccc2)CC1
TGI [1]: > 100 µM | TGI [3]: > 100 µM | TGI [4]: > 100 µM | TGI [6]: > 100 µM | TGI [7]: > 100 µM | TGI [8]: > 100 µM | TGI [9]: > 100 µM | TGI [56]: > 100 µM | TGI [10]: > 100 µM | TGI [11]: > 100 µM | TGI [12]: > 100 µM | TGI [13]: > 100 µM | TGI [14]: > 100 µM | TGI [15]: > 100 µM | TGI [16]: > 100 µM | TGI [17]: > 100 µM | TGI [18]: > 100 µM | TGI [19]: > 100 µM | TGI [20]: > 100 µM | TGI [21]: > 100 µM | TGI [22]: > 100 µM | TGI [23]: > 100 µM | TGI [24]: > 100 µM | TGI [25]: > 100 µM | TGI [26]: > 100 µM | TGI [27]: > 100 µM | TGI [28]: > 100 µM | TGI [29]: > 100 µM | TGI [30]: > 100 µM | TGI [31]: > 100 µM | TGI [32]: > 100 µM | TGI [33]: > 100 µM | TGI [34]: > 100 µM | TGI [35]: > 100 µM | TGI [37]: > 100 µM | TGI [38]: > 100 µM | TGI [39]: > 100 µM | TGI [40]: > 100 µM | TGI [41]: > 100 µM | TGI [42]: > 100 µM | TGI [43]: > 100 µM | TGI [44]: > 100 µM | TGI [45]: > 100 µM | TGI [46]: > 100 µM | TGI [47]: > 100 µM | TGI [49]: > 100 µM | TGI [50]: > 100 µM | TGI [51]: > 100 µM | TGI [59]: > 100 µM | TGI [52]: > 100 µM | TGI [53]: > 100 µM | TGI [54]: > 100 µM | TGI [55]: > 100 µM
